Test results published in patent US20240269298A1, “PHOSPHONYL DERIVATIVE, AND COMPOSITION AND PHARMACEUTICAL APPLICATION THEREOF” (XIZANG HAISCO PHARMACEUTICAL CO., LTD., priority 2021, published 2024).
Read-outs that look alike come from different tables or passages of the source.

Legend:
[1] = system: NCI-H1975 (EGFR-L858R-T790M) cells; experiment: Inhibitory activity on proliferation of NCI-H1975 (EGFR-L858R-T790M) cells (CTG, 72 h); format: cell-based; details: Homo sapiens
Summary of the method: (§1)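 IC50 values come from S-shaped dose-survival fits of CTG signal expressed as % of vehicle. Compound exposure lasted 72 h at 37 °C with 0.1% DMSO; seeding was 3000 A431 cells/well in DMEM+10% FBS and 1000 NCI-H1975 cells/well in RPMI1640+10% FBS.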

A431 (EGFR-WT) cells = experiment: Inhibitory activity on proliferation of A431 (EGFR-WT) cells (CTG, 72 h); format: cell-based; details: Homo sapiens, A-431
Summary of the method: as §1

[2] = read-out: IC50 (value in brackets)

| Compound | IC50 ([1]; read-out: IC50 (class symbol)) [µM] | IC50 [1, 2] [µM] | IC50 (A431 (EGFR-WT) cells) [µM] |
| --- | --- | --- | --- |
| COc1cc(N2CCC(CN3CCCC4(CCN(c5ccc6c(c5)C(=O)N(C5CCC(=O)NC5=O)C6=O)CC4)C3)CC2)c(-c2cnn(C)c2)cc1Nc1ncc(Cl)c(Nc2ccc3nccnc3c2P(C)(C)=O)n1 (stereo not drawn) [Compound 1, 5-(2-((1-(4-((5-chloro-4-((5-(dimethylphosphoryl)quinoxalin-6-yl)amino)pyrimidin-2-yl)amino)-5-methoxy-2-(1-methyl-1H-pyrazol-4-yl)phenyl)piperidin-4-yl)methyl)-2,9-diazaspiro[5.5]undecan-9-yl)-2-(2,6-dioxopiperidin-3-yl)isoindoline-1,3-dione] | < 0.1 | 0.043 | ≥ 10 |
| COc1cc(N2CCN(c3ccc4c(c3)C(=O)N(C3CCC(=O)NC3=O)C4=O)CC2)c(-c2cnn(C)c2)cc1Nc1ncc(Br)c(Nc2ccc(C3CC3)cc2P(C)(C)=O)n1 (stereo not drawn) [Compound 166, 5-(4-(4-((5-bromo-4-((4-cyclopropyl-2-(dimethylphosphoryl)phenyl)amino)pyrimidin-2-yl)amino)-5-methoxy-2-(1-methyl-1H-pyrazol-4-yl)phenyl)piperazin-1-yl)-2-(2,6-dioxopiperidin-3-yl)isoindoline-1,3-dione] | 0.1 to 0.5 | 0.115 | ≥ 10 |
| COc1cc(N2CCN(C[C@H]3CCN(c4ccc5c(c4)C(=O)N(C4CCC(=O)NC4=O)C5=O)C3)CC2)c(-c2cnn(C)c2)cc1Nc1ncc(Br)c(Nc2ccc(C3CC3)cc2P(C)(C)=O)n1 (stereo partly drawn) [Compound 121, 5-((R)-3-((4-(4-((5-bromo-4-((4-cyclopropyl-2-(dimethylphosphoryl)phenyl)amino)pyrimidin-2-yl)amino)-5-methoxy-2-(1-methyl-1H-pyrazol-4-yl)phenyl)piperazin-1-yl)methyl)pyrrolidin-1-yl)-2-(2,6-dioxopiperidin-3-yl)isoindoline-1,3-dione] | < 0.1 | 0.016 | ≥ 10 |

Continued, values first:

| IC50 ([1]; read-out: IC50 (class symbol)) [µM] | IC50 [1, 2] [µM] | IC50 (A431 (EGFR-WT) cells) [µM] | Compound |
| --- | --- | --- | --- |
| 0.1 to 0.5 | 0.152 | ≥ 10 | COc1cc(N2CCC(CN3CCN(c4cc5c(cc4F)C(=O)N(C4CCC(=O)NC4=O)C5=O)CC3)CC2)c(-c2cnn(C)c2)cc1Nc1ncc(Cl)c(Nc2ccc(C3CC3)cc2P(C)(C)=O)n1 (stereo not drawn) [Compound 160, 5-(4-((1-(4-((5-chloro-4-((4-cyclopropyl-2-(dimethylphosphoryl)phenyl)amino)pyrimidin-2-yl)amino)-5-methoxy-2-(1-methyl-1H-pyrazol-4-yl)phenyl)piperidin-4-yl)methyl)piperazin-1-yl)-2-(2,6-dioxopiperidin-3-yl)-6-fluoroisoindoline-1,3-dione] |
| 0.1 to 0.5 | 0.109 | ≥ 10 | COc1cc(N2CCC3(CCN(c4ccc5c(c4)C(=O)N(C4CCC(=O)NC4=O)C5=O)CC3)CC2)c(-c2cnn(C)c2)cc1Nc1ncc(Br)c(Nc2ccccc2P(C)(C)=O)n1 (stereo not drawn) [Compound 164, 5-(9-(4-((5-bromo-4-((2-(dimethylphosphoryl)phenyl)amino)pyrimidin-2-yl)amino)-5-methoxy-2-(1-methyl-1H-pyrazol-4-yl)phenyl)-3,9-diazaspiro[5.5]undecan-3-yl)-2-(2,6-dioxopiperidin-3-yl)isoindoline-1,3-dione] |
| < 0.1 | 0.04 | ≥ 10 | COc1cc(N2CCN(C3CN(c4ccc5c(c4)C(=O)N(C4CCC(=O)NC4=O)C5=O)C3)CC2)c(-c2cnn(C)c2)cc1Nc1ncc(Br)c(Nc2ccc(C3CC3)cc2P(C)(C)=O)n1 (stereo not drawn) [Compound 150, 5-(3-(4-(4-((5-bromo-4-((4-cyclopropyl-2-(dimethylphosphoryl)phenyl)amino)pyrimidin-2-yl)amino)-5-methoxy-2-(1-methyl-1H-pyrazol-4-yl)phenyl)piperazin-1-yl)azetidin-1-yl)-2-(2,6-dioxopiperidin-3-yl)isoindoline-1,3-dione] |
